In PMC6268379, “Antifungal Activity of Homoaconitate and Homoisocitrate Analogs” (Molecules, 2012):
Converted amounts (≈) assume the structure as drawn. Like-named read-outs stand apart in the source and are kept apart here.

How the values were obtained:
[1] = tested on: Saccharomyces cerevisiae ATCC 9763; test: Antifungal in vitro activity, microplate serial dilution (modified CLSI M27-A3); format: cell-based
[2] = tested on: Candida albicans ATCC 10231; test: as above; format: cell-based
[3] = tested on: Candida glabrata DSM 11226; test: as above; format: cell-based; settings: Nakaseomyces glabratus
[4] = tested on: Candida tropicalis KKP 334; test: as above; format: cell-based
[5] = tested on: Candida lusitaniae DSM 70102; test: as above; format: cell-based; settings: Clavispora lusitaniae
Candida krusei DSM 6128 = test: as above; format: cell-based; settings: Pichia kudriavzevii
[6] = target: T1, recombinant homoaconitase (HA) (Candida albicans, UniProt Q5A644); test: Homoaconitase activity, coupled reaction with HIcDH, NADH at 340 nm; format: biochemical; settings: for effect on enzyme activity (homoaconitase): ester derivatives, concentrations up to 10 mM
T1 construct: made in house
T1 sequence (Q5A644 1-684): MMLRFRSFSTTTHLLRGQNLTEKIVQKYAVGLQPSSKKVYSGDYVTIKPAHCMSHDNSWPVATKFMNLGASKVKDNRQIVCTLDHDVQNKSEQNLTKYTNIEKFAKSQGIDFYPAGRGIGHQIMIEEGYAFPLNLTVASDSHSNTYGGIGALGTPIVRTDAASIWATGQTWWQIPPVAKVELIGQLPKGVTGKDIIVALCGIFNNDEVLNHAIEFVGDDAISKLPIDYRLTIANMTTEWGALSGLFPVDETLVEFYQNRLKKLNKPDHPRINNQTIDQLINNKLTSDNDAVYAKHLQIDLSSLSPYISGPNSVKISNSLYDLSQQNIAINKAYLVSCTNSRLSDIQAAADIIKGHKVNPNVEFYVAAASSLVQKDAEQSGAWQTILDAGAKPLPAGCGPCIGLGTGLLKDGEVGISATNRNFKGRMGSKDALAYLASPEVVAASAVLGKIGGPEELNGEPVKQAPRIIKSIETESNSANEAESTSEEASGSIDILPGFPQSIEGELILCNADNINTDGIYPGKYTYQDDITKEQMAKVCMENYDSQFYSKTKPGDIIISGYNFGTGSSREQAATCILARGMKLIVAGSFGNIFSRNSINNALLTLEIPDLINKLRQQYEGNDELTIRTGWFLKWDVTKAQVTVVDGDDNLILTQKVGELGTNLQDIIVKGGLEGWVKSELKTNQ
Description: (§1) Recombinant C. albicans homoaconitase (HA) and homoisocitrate dehydrogenase (HIcDH) containing oligoHis N-terminal tags were constructed and purified to near homogeneity as described earlier.
Activity of homoaconitase (HA) was measured by a coupled reaction with HIcDH by monitoring the reduction of NAD^+ to NADH at 340 nm. Reaction mixtures containing 50 mM Tris-HCl (pH 8.5), 50 mM KCl, 5 mM MgCl2, 20 mM dithiothreitol, 1 mM NAD^+ and 30 μg/mL of His6-HIcDH in a total volume of 0.9 mL were degassed under argon for 10 min, after which 0.05 mL of His6-HAC solution was added to a final concentration of 10 μg/mL. The reaction was initiated with addition of 0.05 mL of 50 mM (R)-homocitrate. The formation of NADH was measured for 30 s at 20 °C to determine initial reaction velocity. The initial rates were determined using a linear portion of the reaction progress curve.
(§2) The effects of novel compounds on the HA and HIcDH activity was determined by measuring the enzyme activity in standard assay mixtures containing various concentration of an inhibitor (0–10 mM). Inhibitory potential was expressed as IC50 values, i.e., concentrations causing 50% inhibition of enzyme activity in relation to control. All determinations were performed in triplicate.

[7] = target: recombinant homoisocitrate dehydrogenase (HIcDH) (Candida albicans, UniProt Q5A9D9); test: Homoisocitrate dehydrogenase activity, NADH absorption at 340 nm; format: biochemical; settings: for effect on enzyme activity (homoisocitrate dehydrogenase): ester derivatives, concentrations up to 10 mM; for IC50: recombinant C. albicans His-tagged HIcDH, inhibitor 0–10 mM, mean of three determinations ± SD
Description: as §1
Reaction catalyzed by homoisocitrate dehydrogenase (HIcDH) was monitored by measuring the NADH absorption at 340 nm. The standard assay mixture contained 10 mM KCl, 5.0 mM MgCl2, 5 mM NAD^+ and 0.1 mM (2R,3S)-homoisocitrate in 50 mM Hepes-NaOH (pH 7.8) buffer. The reaction mixture with all required components except for the enzyme was preincubated for 3 min and the reaction was started by an addition of the recombinant His6-HIcDH (50 μg). The formation of NADH was measured for 30 s at 20 °C to determine initial reaction velocity. The initial rates were determined using a linear portion of the reaction progress curve.
as §2

six yeast strains = test: In vitro antifungal activity against six yeast strains; format: cell-based; settings: for MIC values, range over susceptible yeast strains: range stated in text over the tested yeast strains; for antifungal activity: salts, six yeast strains, stated in words
[8] = ATCC9763, RPMI-1640 pH 7.0, 24 h at 37 °C, at least 80% decrease in turbidity, read-out: MIC S. cerevisiae
[9] = ATCC10231, RPMI-1640 pH 7.0, 24 h at 37 °C, at least 80% decrease in turbidity, read-out: MIC C. albicans
[10] = DSM11226, RPMI-1640 pH 7.0, 24 h at 37 °C, at least 80% decrease in turbidity, read-out: MIC C. glabrata
[11] = KKP334, RPMI-1640 pH 7.0, 24 h at 37 °C, at least 80% decrease in turbidity, read-out: MIC C. tropicalis
[12] = DSM70102, RPMI-1640 pH 7.0, 24 h at 37 °C, at least 80% decrease in turbidity, read-out: MIC C. lusitaniae
[13] = DSM6128, RPMI-1640 pH 7.0, 24 h at 37 °C, at least 80% decrease in turbidity, read-out: MIC C. krusei
[14] = ATCC9763, 24 h, pH 7, read-out: MIC S. cerevisiae
[15] = ATCC10231, 24 h, pH 7, read-out: MIC C. albicans
[16] = DSM11226, 24 h, pH 7, read-out: MIC C. glabrata
[17] = KKP334, 24 h, pH 7, read-out: MIC C. tropicalis
[18] = DSM70102, 24 h, pH 7, read-out: MIC C. lusitaniae
[19] = DSM6128, 24 h, pH 7, read-out: MIC C. krusei

recombinant homoisocitrate dehydrogenase (HIcDH), sequence (Q5A9D9 entry or part of it): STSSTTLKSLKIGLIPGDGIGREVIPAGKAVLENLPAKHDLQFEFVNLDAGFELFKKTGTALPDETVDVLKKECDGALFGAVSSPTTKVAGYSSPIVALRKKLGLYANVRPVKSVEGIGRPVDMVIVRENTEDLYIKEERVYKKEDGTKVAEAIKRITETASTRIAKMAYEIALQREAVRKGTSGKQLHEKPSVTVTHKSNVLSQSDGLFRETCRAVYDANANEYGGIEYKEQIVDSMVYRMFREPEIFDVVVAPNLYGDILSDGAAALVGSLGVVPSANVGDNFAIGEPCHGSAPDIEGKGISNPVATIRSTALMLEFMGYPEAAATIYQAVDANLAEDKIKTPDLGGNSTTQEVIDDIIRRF

MIC [1, 8] [µg/mL]	MIC [2, 9] [µg/mL]	MIC [3, 10] [µg/mL]	MIC [4, 11] [µg/mL]	MIC [5, 12] [µg/mL]	MIC (Candida krusei DSM 6128; [13]) [µg/mL]	SMILES	effect on enzyme activity (homoaconitase) [6]	effect on enzyme activity (homoisocitrate dehydrogenase) [7]	MIC values, range over susceptible yeast strains (six yeast strains) [µg/mL]	MIC [1, 14] [µg/mL]	MIC [2, 15] [µg/mL]	MIC [3, 16] [µg/mL]	MIC [4, 17] [µg/mL]	MIC [5, 18] [µg/mL]	MIC (Candida krusei DSM 6128; [19]) [µg/mL]	IC50 [6] [mM]	IC50 [7] [mM]	antifungal activity (six yeast strains)	Km ([7]; recombinant C. albicans HIcDH, read-out: KM of recombinant HIcDH for cofactor) [µM]
						O=C([O-])/C=C(\CCC(=O)[O-])C(=O)[O-].[K+].[K+].[K+] [Compound 2, tripotassium (1E)-but-1-ene-1,2,4-tricarboxylate]				> 512	> 512	> 512	> 512	> 512	> 512	1.58 ± 0.11	> 10	None	
> 512	> 512	> 512	> 512	> 512	> 512	CCC[C@@H](C(=O)OC)[C@H](O)C(=O)OC [Compound 5a, Dimethyl (2S,3R)-2-hydroxy-3-propylsuccinate]													
> 512	> 512	> 512	> 512	> 512	> 512	CCCC[C@@H](C(=O)OC)[C@H](O)C(=O)OC [Compound 5b, Dimethyl (2S,3R)-2-hydroxy-3-butylsuccinate]													
> 512	> 512	> 512	> 512	> 512	> 512	C=CC[C@@H](C(=O)OC)[C@H](O)C(=O)OC [Compound 5c, Dimethyl (2S,3R)-2-hydroxy-3-allylsuccinate]													
> 512	> 512	> 512	> 512	512 (≈ 2480 µM)	> 512	CCC[C@@H](C(=O)OC)[C@@H](F)C(=O)OC [Compound 6a, Dimethyl (2R,3S)-2-fluoro-3-propylsuccinate]													
> 512	256 (≈ 1160 µM)	512 (≈ 2320 µM)	128 (≈ 581 µM)	128 (≈ 581 µM)	> 512	CCCC[C@@H](C(=O)OC)[C@@H](F)C(=O)OC [Compound 6b, Dimethyl (2R,3S)-2-fluoro-3-butylsuccinate]													
> 512	256 (≈ 1250 µM)	256 (≈ 1250 µM)	256 (≈ 1250 µM)	> 512	512 (≈ 2510 µM)	C=CC[C@@H](C(=O)OC)[C@@H](F)C(=O)OC [Compound 6c, Dimethyl (2R,3S)-2-fluoro-3-allylsuccinate]													
						C=CC[C@@H](C(=O)[O-])[C@@H](F)C(=O)[O-].[K+].[K+] [Compound 7c, Dipotassium (2R,3S)-2-fluoro-3-allylsuccinate]				> 512	> 512	> 512	> 512	512	> 512	> 10	6.78 ± 0.56	None	
						O=C([O-])CC[C@@H](C(=O)[O-])[C@@H](F)C(=O)[O-].[K+].[K+].[K+] [Compound 10, tripotassium (1R,2S)-1-fluorobutane-1,2,4-tricarboxylate]				> 512	> 512	> 512	> 512	> 512	> 512	> 10	3.22 ± 0.55	None	
4 (≈ 13.1 µM)	4 (≈ 13.1 µM)	8 (≈ 26.1 µM)	2 (≈ 6.53 µM)	4 (≈ 13.1 µM)	8 (≈ 26.1 µM)	OC(Cn1cncn1)(Cn1cncn1)c1ccc(F)cc1F [Flu, Fluconazole, reference compound]													
						NC(=O)c1ccc[n+]([C@@H]2O[C@H](COP(=O)([O-])OP(=O)(O)OC[C@H]3O[C@@H](n4cnc5c(N)ncnc54)[C@H](O)[C@@H]3O)[C@@H](O)[C@H]2O)c1 [NAD^+, reference compound]													1100

SMILES	MIC [1, 8] [µg/mL]	MIC [2, 9] [µg/mL]	MIC [3, 10] [µg/mL]	MIC [4, 11] [µg/mL]	MIC [5, 12] [µg/mL]	MIC (Candida krusei DSM 6128; [13]) [µg/mL]	effect on enzyme activity (homoaconitase) [6]	effect on enzyme activity (homoisocitrate dehydrogenase) [7]	MIC values, range over susceptible yeast strains (six yeast strains) [µg/mL]	MIC [1, 14] [µg/mL]	MIC [2, 15] [µg/mL]	MIC [3, 16] [µg/mL]	MIC [4, 17] [µg/mL]	MIC [5, 18] [µg/mL]	MIC (Candida krusei DSM 6128; [19]) [µg/mL]	IC50 [6] [mM]	IC50 [7] [mM]	antifungal activity (six yeast strains)	Km ([7]; recombinant C. albicans HIcDH, read-out: KM of recombinant HIcDH for cofactor) [µM]
COC(=O)/C=C(\CCC(=O)OC)C(=O)OC [Compound 1a, trimethyl (1E)-but-1-ene-1,2,4-tricarboxylate]	32 (≈ 139 µM)	16 (≈ 69.5 µM)	16 (≈ 69.5 µM)	32 (≈ 139 µM)	16 (≈ 69.5 µM)	32 (≈ 139 µM)	none	none	16 to 32										
COC(=O)CCC1(C(=O)OC)OC1C(=O)OC (stereo not drawn) [Compound 3, Trimethyl (1E)1,2-epoxy-butane-1,2,4-tricarboxylate]	> 512	256 (≈ 1040 µM)	128 (≈ 520 µM)	128 (≈ 520 µM)	512 (≈ 2080 µM)	> 512	none	none	128 to 512										
O=C(O)CCC1(C(=O)O)OC1C(=O)O (stereo not drawn) [Compound 4, Tripotassium (1E)1,2-epoxy-butane-1,2,4-tricarboxylate]	> 512	> 512	> 512	> 512	> 512	> 512										5.76 ± 0.34	> 10	None	
COC(=O)CC[C@@H](C(=O)OC)[C@@H](F)C(=O)OC [Compound 9, trimethyl (1R,2S)-1-fluorobutane-1,2,4-tricarboxylate]	> 512	128 (≈ 512 µM)	256 (≈ 1020 µM)	64 (≈ 256 µM)	> 512	256 (≈ 1020 µM)	none	none											
